From patent publication US20210353579A1, “HIGH PENETRATION COMPOSITIONS AND USES THEREOF” (Techfields Pharma Co., Ltd., priority 2006, published 2021)

Key:
[1] = Plasma levels after transdermal administration to hairless mice; format: in vivo; details: mouse, in vivo
Experimental: Tested compounds (20% solution or suspension in 1 mL isopropanol) are administered transdermally to the skin of intact hairless mice. The plasma levels of the parent compounds are determined by HPLC.

mice = assay: Analgesic activity, acetic acid writhing; format: in vivo
Experimental: The prodrug compounds are administered either transdermally or orally. The parent compounds are administered orally. The number of writhing that occurred when mice are administered the acetic acid solution are counted, and the rate of inhibition based on the control group which was not pretreated with any test compounds is calculated. […] The A group is the control group.

rats = assay: Antipyretic activity, E. coli suspension as pyrogen; format: in vivo; details: in °C (unit assumed)
Experimental: Rats are administered with sterilized E. coli suspension as a pyrogen. Each group of rats are administered with a prodrug compounds or parent compounds at a dosage specified below. The prodrug compounds are administered either orally or transdermally. The parent compounds are administered orally.

human skin tissue = details: pH 7.4
rat = details: rats
Experimental: The acute toxicity of the prodrug compounds and parent compounds are measured by LD50 of rat.

[2] = 50 mg/kg transdermally, 60 minutes before acetic acid
[3] = 50 mg/kg transdermally, 30 min before acetic acid
[4] = 100 mg/kg transdermally, 30 min before acetic acid
[5] = 50 mg/kg orally, 30 min before acetic acid
[6] = 100 mg/kg orally, 30 min before acetic acid
[7] = 100 mg/kg transdermally, 60 minutes before acetic acid
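For LD50 of HPP in this document: acute toxicity in rats expressed as LD50, determined for both prodrugs and their parent compounds.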

| Compound | Peak plasma concentration of parent compound after prodrug compound [1] | t, time to peak plasma level of parent compound after prodrug compound [1] | In vitro penetration rate (apparent flux), prodrug compounds (human skin tissue) | LD50 of HPP (rat) | % (rate of writhing inhibition) (mice; [4]) | No. of Writhing (mice; [4]) | body temperature, t = 0 min (rats; 100 mg/kg transdermally) | body temperature, t = 90 min (rats; 100 mg/kg transdermally) | body temperature, t = 180 min (rats; 100 mg/kg transdermally) | body temperature, t = 270 min (rats; 100 mg/kg transdermally) | also measured |
| --- | --- | --- | --- | --- | --- | --- | --- | --- | --- | --- | --- |
| 4-N,N-dimethylaminobutyryloxy-2-methyl-N-[5-Methyl-3-isoxolyl-2H-1,2-benzothiazine-3-carboxamide 1,1-dioxide].HCl | 20 mg/L | 50 min | 1800 μg/cm^2/h | 570 mg/kg |  |  |  |  |  |  | % (rate of writhing inhibition) (mice; [2]): 55%; No. of Writhing (mice; [2]): 15.8; body temperature, t = 0 min (rats; 25 mg/kg transdermally): 37.52 ± 0.06; body temperature, t = 90 min (rats; 25 mg/kg transdermally): 36.62 ± 0.07; body temperature, t = 180 min (rats; 25 mg/kg transdermally): 36.53 ± 0.06; body temperature, t = 270 min (rats; 25 mg/kg transdermally): 36.60 ± 0.05 |
| Cc1cnc(NC(=O)C2=C(OC(=O)CCCN(C)C)c3ccccc3S(=O)(=O)N2C)s1.Cl [4-N,N-dimethylaminobutyryloxy-2-methyl-N-(5-methyl-2-thiazolyl)-2H-1,2-benzothiazine-3-carboxamide-1,1-dioxide.HCl] | 20 mg/L |  | 1900 μg/cm^2/h | 590 mg/kg |  |  |  |  |  |  | % (rate of writhing inhibition) (mice; [2]): 48%; No. of Writhing (mice; [2]): 18.2; body temperature, t = 0 min (rats; 25 mg/kg transdermally): 37.57 ± 0.07; body temperature, t = 90 min (rats; 25 mg/kg transdermally): 36.53 ± 0.08; body temperature, t = 180 min (rats; 25 mg/kg transdermally): 36.52 ± 0.08; body temperature, t = 270 min (rats; 25 mg/kg transdermally): 36.50 ± 0.07 |
| CN(C)CCCC(=O)OC1=C(C(=O)Nc2ccccn2)N(C)S(=O)(=O)c2cc(Cl)sc21.Cl [6-chloro-4-N,N-dimethylaminobutyryloxy-2-methyl-N-2-pyridinyl-2H-thieno[2,3-e]-1,2-thiazine-3-carboxamide 1,1-dioxide.HCl] | 20 mg/L |  | 1600 μg/cm^2/h | 580 mg/kg |  |  |  |  |  |  | % (rate of writhing inhibition) (mice; [2]): 53%; No. of Writhing (mice; [2]): 16.5; body temperature, t = 0 min (rats; 25 mg/kg transdermally): 37.55 ± 0.05; body temperature, t = 90 min (rats; 25 mg/kg transdermally): 36.66 ± 0.06; body temperature, t = 180 min (rats; 25 mg/kg transdermally): 36.60 ± 0.06; body temperature, t = 270 min (rats; 25 mg/kg transdermally): 36.61 ± 0.07 |
| CC(=O)O.CCN(CC)CCOC(=O)C(C)c1cccc(C(=O)c2ccccc2)c1 (centres unmarked) [diethylaminoethyl 2-(3-benzoylphenyl) propionate.AcOH] | 20 mg/L | 40 min | 1150 μg/cm^2/h | 300 mg/kg |  |  |  |  |  |  | % (rate of writhing inhibition) (mice; [3]): 59%; No. of Writhing (mice; [3]): 14.2; body temperature, t = 0 min (rats; 50 mg/kg transdermally): 37.28 ± 0.06; body temperature, t = 90 min (rats; 50 mg/kg transdermally): 36.65 ± 0.06; body temperature, t = 180 min (rats; 50 mg/kg transdermally): 36.58 ± 0.08; body temperature, t = 270 min (rats; 50 mg/kg transdermally): 36.60 ± 0.07 |
| CC(=O)O.CCN(CC)CCOC(=O)C(C)c1cccc(Oc2ccccc2)c1 (centres unmarked) [diethylaminoethyl 2-(3-phenoxyphenyl) propionate.AcOH] | 20 mg/L | 40 min | 1250 μg/cm^2/h | 1500 mg/kg |  |  |  |  |  |  | % (rate of writhing inhibition) (mice; [3]): 60%; No. of Writhing (mice; [3]): 14.0; body temperature, t = 0 min (rats; 50 mg/kg transdermally): 37.28 ± 0.06; body temperature, t = 90 min (rats; 50 mg/kg transdermally): 36.65 ± 0.06; body temperature, t = 180 min (rats; 50 mg/kg transdermally): 36.58 ± 0.08; body temperature, t = 270 min (rats; 50 mg/kg transdermally): 36.56 ± 0.07 |
| CC(=O)O.CCN(CC)CCOC(=O)C(C)c1ccc2oc(-c3ccc(Cl)cc3)nc2c1 (stereo not drawn) [diethylaminoethyl 2-(4-chlorophenyl)-α-methyl-5-benzoxazoleacetate.AcOH] | 2000 mg/L | 50 min | 4000 μg/cm^2/h | 1300 mg/kg | 51% | 17.1 | 37.25 ± 0.07 | 36.82 ± 0.06 | 36.70 ± 0.05 | 36.50 ± 0.08 |  |
| CC(=O)O.CCN(CC)CCOC(=O)C(C)c1ccc2cc(OC)ccc2c1 (centres unmarked) [diethylaminoethyl 2-(6-methoxy-2-naphthyl)propionate.AcOH] | 2000 mg/L | 50 min | 3500 μg/cm^2/h | 2200 mg/kg | 51% | 17.1 | 37.33 ± 0.07 | 36.80 ± 0.06 | 36.72 ± 0.05 | 36.50 ± 0.08 |  |
| CC(=O)O.CCN(CC)CCOC(=O)C(C)c1ccc(CC(C)C)cc1 (centres unmarked) [diethylaminoethyl 2-(ρ-isobutylphenyl) propionate.AcOH] | 120 mg/L | 30 min | 1250 μg/cm^2/h | 1800 mg/kg | 71% | 9.8 | 37.27 ± 0.06 | 36.30 ± 0.06 | 36.35 ± 0.08 | 36.31 ± 0.07 | % (rate of writhing inhibition) (mice; [5]): 59%; No. of Writhing (mice; [5]): 14.1; % (rate of writhing inhibition) (mice; [3]): 61%; No. of Writhing (mice; [3]): 13.3; % (rate of writhing inhibition) (mice; [6]): 70%; No. of Writhing (mice; [6]): 10.2; body temperature, t = 0 min (rats; 100 mg/kg orally): 37.22 ± 0.07; body temperature, t = 90 min (rats; 100 mg/kg orally): 36.40 ± 0.06; body temperature, t = 180 min (rats; 100 mg/kg orally): 36.50 ± 0.05; body temperature, t = 270 min (rats; 100 mg/kg orally): 36.45 ± 0.08; body temperature, t = 0 min (rats; 150 mg/kg orally): 37.24 ± 0.08; body temperature, t = 90 min (rats; 150 mg/kg orally): 36.30 ± 0.05; body temperature, t = 180 min (rats; 150 mg/kg orally): 36.35 ± 0.07; body temperature, t = 270 min (rats; 150 mg/kg orally): 36.38 ± 0.08; body temperature, t = 0 min (rats; 150 mg/kg transdermally): 37.26 ± 0.05; body temperature, t = 90 min (rats; 150 mg/kg transdermally): 36.25 ± 0.05; body temperature, t = 180 min (rats; 150 mg/kg transdermally): 36.30 ± 0.07; body temperature, t = 270 min (rats; 150 mg/kg transdermally): 36.20 ± 0.05 |
| CC(=O)O.CCN(CC)CCOC(=O)c1cccnc1Nc1cccc(C(F)(F)F)c1C [diethylaminoethyl 2-[[2-methyl-3-(trifluoromethyl)phenyl]amino]-3-pyridinecarboxylate.AcOH] | 20 mg/L | 50 min | 1700 μg/cm^2/h | 1100 mg/kg |  |  | 37.23 ± 0.06 | 36.69 ± 0.06 | 36.52 ± 0.08 | 36.40 ± 0.07 | % (rate of writhing inhibition) (mice; [7]): 55%; No. of Writhing (mice; [7]): 15.7 |
| CC(=O)O.CCN(CC)CCOC(=O)c1cccnc1Nc1cccc(C(F)(F)F)c1 [diethylaminoethyl 2-[[3-(trifluoromethyl)phenyl]amino]-3-pyridinecarboxylate.AcOH] | 20 mg/L | 50 min | 1800 μg/cm^2/h | 750 mg/kg |  |  | 37.25 ± 0.07 | 36.82 ± 0.06 | 36.70 ± 0.05 | 36.50 ± 0.08 | % (rate of writhing inhibition) (mice; [7]): 57%; No. of Writhing (mice; [7]): 15.2 |
| CC(=O)O.CCN(CC)CCOC(=O)Cc1cccc(C(=O)c2ccccc2)c1N [diethylaminoethyl 2-amino-3-benzoylbenzeneacetate.AcOH] | 20 mg/L | 50 min | 800 μg/cm^2/h | 1000 mg/kg | 61% | 13.8 | 37.22 ± 0.06 | 36.65 ± 0.05 | 36.62 ± 0.08 | 36.58 ± 0.07 |  |
| CC(=O)O.CCN(CC)CCOC(=O)C(C)c1ccc(N2Cc3ccccc3C2=O)cc1 (stereo not drawn) [diethylaminoethyl 4-(1,3-dihydro-1-oxo-2H-isoindol-2-yl)-α-methylbenzeneacetate.AcOH] | 2000 mg/L | 50 min | 4200 μg/cm^2/h | 3500 mg/kg | 62% | 13.2 | 37.28 ± 0.06 | 36.65 ± 0.06 | 36.58 ± 0.08 | 36.56 ± 0.07 |  |
| CC(=O)O.CCN(CC)CCOC(=O)C1CCc2cc(C3CCCCC3)c(Cl)cc21 (centres unmarked) [diethylaminoethyl 6-chloro-5-cyclohexyl-2,3-dihydro-1H-indene-1-carboxylate.AcOH] | 2000 mg/L | 50 min | 4000 μg/cm^2/h | 200 mg/kg | 57% | 15.2 | 37.25 ± 0.06 | 36.63 ± 0.06 | 36.55 ± 0.08 | 36.51 ± 0.07 |  |
